Structures are written as SMILES. Like-named read-outs stand apart in the source and are kept apart here.

In series [1] the target is T1, CYP2D6 (Homo sapiens, UniProt P10635). Description: Reversible (co-incubation) and time dependent (pre-incubation) inhibition of recombinant CYP2D6, fluorescent substrate AMMC. Also noted: purchased BD Gentest (Woburn, MA, USA). To be noted: for IC50: recombinant enzyme, mean ± SD of three experiments. The class given is in vitro ADME.
For series [2], the target named is T2, CYP3A4 (Homo sapiens, UniProt P08684). Format: in vitro ADME. To be noted: Lineweaver-Burk plot, testosterone metabolism. Also noted: The reaction was initiated by the addition of HLM (0.6 mg/mL protein); tissue Corning Life Sciences (Cambridge, MA, USA); host or cells: pooled human liver microsomes, 25 donors, mixed gender.
T2 sequence (P08684 whole entry): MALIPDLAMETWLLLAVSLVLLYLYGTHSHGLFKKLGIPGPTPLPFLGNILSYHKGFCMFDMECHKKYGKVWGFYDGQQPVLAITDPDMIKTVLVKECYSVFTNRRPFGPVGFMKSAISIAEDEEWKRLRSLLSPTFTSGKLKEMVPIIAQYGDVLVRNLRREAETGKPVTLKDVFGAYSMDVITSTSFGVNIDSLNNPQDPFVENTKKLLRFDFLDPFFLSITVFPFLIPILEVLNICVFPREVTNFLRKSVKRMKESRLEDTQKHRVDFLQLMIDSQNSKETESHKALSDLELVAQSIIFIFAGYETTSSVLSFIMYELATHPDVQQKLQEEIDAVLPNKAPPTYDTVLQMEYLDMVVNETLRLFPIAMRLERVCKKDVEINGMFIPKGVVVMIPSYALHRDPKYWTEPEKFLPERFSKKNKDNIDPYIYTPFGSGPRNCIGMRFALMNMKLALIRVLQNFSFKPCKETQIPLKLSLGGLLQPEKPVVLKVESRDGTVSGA
Description: (§2) The incubation mixture (250 µL) consisted of NADPH regeneration system (NADP^+, glucose-6-phosphate, and G6PDH) in 0.1M potassium phosphate buffer (pH 7.4). […] The reaction was initiated by the addition of HLM (0.6 mg/mL protein). After further incubation of 30 min (for CYP3A4) or 20 min (for CYP2D6) at 37 °C, reaction was terminated by addition of ice-cold acetonitrile containing 5 μL corticosterone (internal standard for CYP3A4, 20 µM) or 5 μL niflumic acid (internal standard for CYP2D6, 1 µM). The mixture was centrifuged at 10,000 rpm for 5 min and the supernatant (200 μL) was transferred into vials for HPLC (CYP3A4) or UHPLC (CYP2D6) analysis. IC50 values were obtained from concentration-response curves generated by plotting log concentration versus % of control by using GraphPad Prism 6 (La Jolla, CA, USA).
(§3) The type of inhibition (competitive or non-competitive) was predicted by Lineweaver-Burk Plot (velocity^−1 vs. substrate^−1). Apparent inhibition constant (Ki) was calculated from the x-intercept of the Dixon plot (slope of the primary plot vs. inhibitor concentration), which was fitted by liner regression using GraphPad Prism 6 (La Jolla, CA, USA).
The target in series [3] is T2, CYP3A4. Briefly: Reversible (co-incubation) and time dependent (pre-incubation) inhibition of recombinant CYP3A4, fluorescent substrate BFC. Format: in vitro ADME. Also on record: purchased BD Gentest (Woburn, MA, USA). The following applies: based on IC50 shift ratio criterion > 1.5.
Description: (§4) The reaction was terminated and fluorescence was measured as described above. IC50 values (pre-incubation assay) were obtained as above. The IC50 shift fold was calculated as the ratio of IC50 (co-incubation)/IC50 (pre-incubation).
Series [4] has as its target T1, CYP2D6. Briefly: Reversible inhibition and enzyme kinetics of CYP2D6 in pooled HLM (dextromethorphan to dextrorphan). Format: in vitro ADME. Also on record: The reaction was initiated by the addition of HLM (0.6 mg/mL protein); tissue Corning Life Sciences (Cambridge, MA, USA); host or cells: pooled human liver microsomes, 25 donors, mixed gender. The following applies: for Type of inhibition of CYP2D6 in HLM: Lineweaver-Burk plot.
Description: as §2, §3
The quantification of dextromethorphan, dextrorphan and niflumic acid (internal standard) was done by using Agilent LC-quadrupole time-of-flight (QToF) (model 6230)-mass spectrometry (Agilent Technologies, Palo Alto, CA, USA). The UHPLC system consisted of a binary pump, autosampler, degasser, and a column compartment. The mass detector was equipped with an electron spray ionization interface, which was connected to Agilent MassHunter Work Station (B.05.00). Dextromethorphan and dextrorphan were analyzed using an Agilent Zorbax SB-C8 RRHD column (100 mm × 2.1 mm I.D., 1.8 µm). A column temperature of 35 °C and sample temperature of 15 °C were maintained during analysis. The mobile phase consisted of water (A) and Acetonitrile (B), both containing 0.1% formic acid, which were applied in the following linear gradient elution: 0 min, 80%A: 20%B in next 10 min to 30%A: 70%B and in next 2 min to 100% B, at a flow rate of 0.2 mL/min. Separation was followed by a 2 min washing procedure with 100% B and re-equilibration period of 3.0 min. The total run time for analysis was 10 min. The injection volume was 2 µL. […] The LOD and LOQ of dextromethorph and dextrorphan, were 10 ng/mL and 5 ng/mL, respectively.

The next series has as its target T3, CYP2C9 (Homo sapiens, UniProt P11712).
T3 construct: purchased BD Gentest (Woburn, MA, USA)
Description: Reversible inhibition of recombinant CYP2C9. Format: in vitro ADME. To be noted: recombinant enzyme, 100–0.4 µM, data not shown. Here is the method: (§1) The assay conditions for determining reversible and time dependent inhibition of CYPs were similar as reported earlier. Test samples or positive controls were serially diluted in a solution (100 µL) of cofactors mix, control protein (0.05 mg of protein/mL) and Glucose-6-phosphate dehydrogenase (G6PDH) to achieve six concentrations (100–0.4 µM). To account for any inherent fluorescence, the plates were incubated at 37 °C for 10 min and fluorescence readings were taken. Enzyme substrate mixture (100 µL) was added to initiate the reaction and the plates were further incubated for 15 (CYP1A2), 30 (CYP3A4, 2C9 and 2C19) or 45 min (CYP2D6). The reaction was stopped by the addition of 75 µL of acetonitrile/0.5M Tris base (80:20). Fluorescence was measured on Spectramax M5 plate reader (Molecular Devices, Sunnyvale, CA, USA) at specified excitation and emission wavelengths for each substrate. IC50 values (co-incubation assay) were obtained from concentration-response curves generated by plotting log concentration versus % control.

For series [5] the following is noted: humans, cited from earlier work.
In a further series the target is T4, CYP2C19 (Homo sapiens, UniProt P33261).
T4 construct: purchased BD Gentest (Woburn, MA, USA)
T4 sequence (P33261 whole entry): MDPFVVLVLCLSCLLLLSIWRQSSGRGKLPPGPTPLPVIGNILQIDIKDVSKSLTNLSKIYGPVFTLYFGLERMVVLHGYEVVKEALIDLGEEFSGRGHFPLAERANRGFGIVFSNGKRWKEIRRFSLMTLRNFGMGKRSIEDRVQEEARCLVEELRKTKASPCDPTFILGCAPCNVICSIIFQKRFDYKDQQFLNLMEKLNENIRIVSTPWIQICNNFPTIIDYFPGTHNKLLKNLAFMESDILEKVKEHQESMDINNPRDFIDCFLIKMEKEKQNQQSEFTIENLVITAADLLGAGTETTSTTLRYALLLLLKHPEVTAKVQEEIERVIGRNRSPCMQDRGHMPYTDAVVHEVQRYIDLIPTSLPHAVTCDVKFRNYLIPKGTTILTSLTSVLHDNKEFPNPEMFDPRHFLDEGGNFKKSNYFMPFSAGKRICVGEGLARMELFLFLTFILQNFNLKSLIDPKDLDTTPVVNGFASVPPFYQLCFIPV
Briefly: Reversible inhibition of recombinant CYP2C19. Format: in vitro ADME. To be noted: recombinant enzyme, 100–0.4 µM, data not shown. Here is the method: as §1

The target of a further series is T5, P-gp (Homo sapiens, UniProt P08183).
T5 construct: host or cells: hMDR1-MDCK-II (canine kidney cells transfected with human MDR1)
T5 sequence (P08183 whole entry): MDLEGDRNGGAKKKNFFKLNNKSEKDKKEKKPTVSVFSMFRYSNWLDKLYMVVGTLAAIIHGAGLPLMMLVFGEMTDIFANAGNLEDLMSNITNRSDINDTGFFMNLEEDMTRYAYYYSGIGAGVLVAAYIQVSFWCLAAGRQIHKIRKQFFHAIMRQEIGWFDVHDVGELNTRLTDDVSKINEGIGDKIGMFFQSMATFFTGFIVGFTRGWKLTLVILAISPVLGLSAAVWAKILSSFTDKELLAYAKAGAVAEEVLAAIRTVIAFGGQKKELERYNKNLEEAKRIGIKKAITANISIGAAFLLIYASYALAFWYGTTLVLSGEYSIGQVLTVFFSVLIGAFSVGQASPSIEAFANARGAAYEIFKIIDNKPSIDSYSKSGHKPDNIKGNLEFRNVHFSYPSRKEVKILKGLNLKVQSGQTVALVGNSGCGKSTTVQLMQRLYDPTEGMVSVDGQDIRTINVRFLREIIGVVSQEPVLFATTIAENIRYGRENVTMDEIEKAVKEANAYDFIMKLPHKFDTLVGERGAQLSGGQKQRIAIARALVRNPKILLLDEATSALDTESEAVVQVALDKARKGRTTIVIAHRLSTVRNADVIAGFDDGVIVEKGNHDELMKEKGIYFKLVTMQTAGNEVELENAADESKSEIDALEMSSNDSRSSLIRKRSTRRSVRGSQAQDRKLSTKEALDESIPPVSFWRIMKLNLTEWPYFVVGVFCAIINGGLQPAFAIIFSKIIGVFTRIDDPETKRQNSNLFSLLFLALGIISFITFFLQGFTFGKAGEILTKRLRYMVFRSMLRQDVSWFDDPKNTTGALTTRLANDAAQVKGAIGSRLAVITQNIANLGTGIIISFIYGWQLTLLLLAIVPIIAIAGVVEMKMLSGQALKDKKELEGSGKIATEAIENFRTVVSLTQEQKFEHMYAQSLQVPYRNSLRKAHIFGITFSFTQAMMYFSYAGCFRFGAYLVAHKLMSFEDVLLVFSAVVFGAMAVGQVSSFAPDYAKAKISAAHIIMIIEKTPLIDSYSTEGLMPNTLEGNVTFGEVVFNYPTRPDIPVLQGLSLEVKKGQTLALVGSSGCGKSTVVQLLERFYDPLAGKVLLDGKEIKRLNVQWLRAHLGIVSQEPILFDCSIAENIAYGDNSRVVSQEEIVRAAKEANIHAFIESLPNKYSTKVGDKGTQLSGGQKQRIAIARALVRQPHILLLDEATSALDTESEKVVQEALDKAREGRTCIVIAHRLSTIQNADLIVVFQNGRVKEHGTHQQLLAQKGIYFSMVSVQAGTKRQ
Briefly: P-gp inhibition, calcein-AM uptake in hMDR1-MDCK-II and MDCK-II cells. Format: cell-based. The following applies: calcein-AM 1 µM, mean ± SD of three experiments.

In the next series the target is T6, CYP1A2 (Homo sapiens, UniProt P05177).
T6 construct: purchased BD Gentest (Woburn, MA, USA)
T6 sequence (P05177 whole entry): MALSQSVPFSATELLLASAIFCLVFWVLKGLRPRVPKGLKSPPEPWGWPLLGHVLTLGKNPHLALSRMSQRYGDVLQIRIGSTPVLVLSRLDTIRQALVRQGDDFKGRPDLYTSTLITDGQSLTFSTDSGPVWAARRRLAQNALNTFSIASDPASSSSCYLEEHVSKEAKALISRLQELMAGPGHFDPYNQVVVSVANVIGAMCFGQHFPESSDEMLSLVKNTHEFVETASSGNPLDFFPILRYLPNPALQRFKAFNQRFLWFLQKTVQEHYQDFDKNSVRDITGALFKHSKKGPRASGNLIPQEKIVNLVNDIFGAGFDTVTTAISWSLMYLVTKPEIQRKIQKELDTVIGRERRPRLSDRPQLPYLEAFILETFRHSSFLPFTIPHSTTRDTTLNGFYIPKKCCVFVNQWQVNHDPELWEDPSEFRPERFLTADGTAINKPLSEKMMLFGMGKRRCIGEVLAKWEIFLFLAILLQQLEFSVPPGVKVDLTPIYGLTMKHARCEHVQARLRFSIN
Description: Inhibition of recombinant CYP1A2. Format: in vitro ADME. To be noted: recombinant enzyme.

T1 sequence (P10635 whole entry): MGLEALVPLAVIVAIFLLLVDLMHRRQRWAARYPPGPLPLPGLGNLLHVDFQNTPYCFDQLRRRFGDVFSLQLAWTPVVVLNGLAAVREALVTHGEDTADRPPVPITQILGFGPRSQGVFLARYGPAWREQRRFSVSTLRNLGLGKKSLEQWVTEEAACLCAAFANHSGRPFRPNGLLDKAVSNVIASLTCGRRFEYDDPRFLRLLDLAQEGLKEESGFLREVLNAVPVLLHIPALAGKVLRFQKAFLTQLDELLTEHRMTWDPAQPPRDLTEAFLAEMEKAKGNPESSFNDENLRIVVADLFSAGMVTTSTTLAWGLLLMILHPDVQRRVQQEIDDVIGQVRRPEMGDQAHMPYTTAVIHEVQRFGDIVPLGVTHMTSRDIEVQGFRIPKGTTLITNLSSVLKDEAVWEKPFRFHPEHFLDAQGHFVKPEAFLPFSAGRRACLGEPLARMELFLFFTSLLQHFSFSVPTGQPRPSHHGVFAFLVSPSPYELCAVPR
T3 sequence (P11712 whole entry): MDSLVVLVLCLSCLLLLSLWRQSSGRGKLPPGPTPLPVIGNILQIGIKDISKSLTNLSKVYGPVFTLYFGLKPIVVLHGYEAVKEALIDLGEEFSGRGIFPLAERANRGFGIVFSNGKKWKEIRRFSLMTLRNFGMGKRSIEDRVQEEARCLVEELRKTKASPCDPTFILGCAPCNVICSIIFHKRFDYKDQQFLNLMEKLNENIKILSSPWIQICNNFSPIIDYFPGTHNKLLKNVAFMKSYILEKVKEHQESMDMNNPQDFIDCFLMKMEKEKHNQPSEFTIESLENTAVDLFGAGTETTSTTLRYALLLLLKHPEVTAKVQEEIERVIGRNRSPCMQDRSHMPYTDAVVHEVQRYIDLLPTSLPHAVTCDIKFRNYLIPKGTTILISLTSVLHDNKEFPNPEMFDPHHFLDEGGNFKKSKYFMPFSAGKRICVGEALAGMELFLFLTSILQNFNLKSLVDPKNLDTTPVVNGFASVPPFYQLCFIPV
Description for CYP1A2: as §4
Description for P-gp: MDCK-II and hMDR1-MDCK-II cells were seeded in 96-well plates at 70,000 cells/well in 200 µL of culture medium. The medium was changed at 24 h after seeding and the assay was performed 48 h later. Test samples and positive control at various concentrations (100–0.4 µM) were added to the cells in 50 µL of transport buffer and incubated at 37 °C for 10 min. […] The % increase in calcein-AM uptake was calculated as described earlier [18].

As for `CCOC(=O)C1=C[C@]2(CC)CCCN3CCc4c(n1c1ccccc41)[C@@H]32` [Vinpocetine, ethyl apovincaminate], the “Time dependent inhibition (TDI) of CYP2D6” value at CYP2D6 [1] (based on IC50 shift ratio criterion > 1.5) is recorded as “no TDI”. Moreover, the IC50 on CYP2D6 [1] (30 min pre-incubation (TDI assay), read-out: CYP2D6 (recombinant) IC50 Pre-incubation) was found to be 37 ± 1.6 µM; at CYP2D6 [1] (co-incubation (reversible inhibition), read-out: CYP2D6 (recombinant) IC50 Co-incubation), 6.5 ± 1.1 µM. For the same compound, the “Type of inhibition of CYP3A4 in HLM” value at CYP3A4 [2] was “competitive inhibition”; at CYP3A4 [2] (listed as vinpocetine), “competitive”. The “Time dependent inhibition (TDI) of CYP3A4” value on CYP3A4 [3] is listed as “no TDI”. Further, the “Type of inhibition of CYP2D6 in HLM” value at CYP2D6 [4] (dextromethorphan metabolism) was “non-competitive inhibition”; on CYP2D6 [4] (dextromethorphan metabolism, listed as vinpocetine), “competitive”. The IC50 at 20 min on CYP2D6 [4] (human, pooled human liver microsomes, pH 7.4, probe dextromethorphan (to dextrorphan), pooled HLM, dextromethorphan as probe substrate) worked out at 19 µM. Besides, the Ki at CYP2D6 [4] (pooled HLM, dextromethorphan metabolism, Dixon plot) is 26 µM. In addition, the “Inhibition of CYP2C9” value at CYP2C9 is listed as “no activity”; at CYP2C9 (listed as vinpocetine), “No inhibition”. Besides, the “Maximum plasma concentration (Cmax)” value in series [5] (oral) was 60 ng/mL. In addition, in [5], the Oral bioavailability is 6%. Also, the “Inhibition of CYP2C19” value is reported as “no activity” at CYP2C19 and “No inhibition” on CYP2C19 (listed as vinpocetine). Besides, the EC50 at P-gp was 8 µM. Moreover, the “Inhibition of CYP1A2” value at CYP1A2 is listed as “no activity”.

These data come from article PMC5533163 (Medicines, 2015).
